Experimental data as given in patent US20090047314A1, “MICROENCAPSULATION SYSTEMS AND APPLICATIONS OF SAME” (Centre National de la Recherche Scientifique (C.N.R.S.), priority 2003, published 2009).

Assay: Encapsulation of molecule in the beads (determination by HPLC)
Format: physicochemical
Conditions: α-cyclodextrin/soya oil beads
Procedure: The procedure is carried out as described in Example 1, but using, as molecules of interest, molecules that are active in therapeutics or that can be used in cosmetics, such as pigments or dyes, vitamin E acetate, benzophenone or isotretinoin.
In addition, it was shown that 30% of vitamin E acetate is encapsulated (determination by HPLC).

CC(=O)Oc1c(C)c(C)c2c(c1C)CCC(C)(CCC[C@H](C)CCC[C@H](C)CCCC(C)C)O2 (stereo partly shown) [vitamin E acetate]
fraction of molecule encapsulated in the beads: 30%
